Our source for the IC50 values is US20060079453A1, “Hla binding peptides and their uses” (priority 2002, published 2006).

Where two headings read alike, the source gives them in different places. No end group written: not given here. Bounds are passed on as bounds.

The target of one assay is HLA-A*2902 (Homo sapiens, UniProt P04439, A270S/D101N/D185E/E176V/E277Q/E87Q/F33T/G231S/H175R/I121M/I218V/I322F/K168Q/L300P/L318F/M331R/P208A/P217A/Q86L/T323A/T345S/V100A/V358M). The assay can be described thus: MHC molecular binding / Capture assay, IC50: A*2902.
Another assay concerns the target HLA-A*3002 (Homo sapiens, UniProt P04439, D101N/D140H/D185E/E176R/F33S/G80R/H175R/K168Q/Q94H/R138E/R41S/V100E). The assay can be described thus: biochemical. Type of assay: binding.
In another assay the target is HLA-A*0203 (Homo sapiens, UniProt P04439, A173T/D140Y/D185E/D98H/E277Q/G131W/G231S/I119V/I121R/I166T/I218V/L180W/L300P/L318F/N151K/N90K/P208A/P217A/Q86G/Q94H/R138H/R169H/T345S). The assay is described as follows: biochemical. Type of assay: binding.
Another assay addresses HLA-A*0206 (Homo sapiens, UniProt P04439, D140Y/D185E/D98H/E176V/E277Q/F33Y/G131W/G231S/I119V/I121R/I166T/I218V/L300P/L318F/N151K/N90K/P208A/P217A/Q86G/Q94H/R138H/R169H/T345S). The assay can be described thus: biochemical. The assay is classed as binding.
In the next assay the target is HLA-A*6802 (Homo sapiens, UniProt P04439, A269V/D140Y/D185E/E176V/E277Q/E87N/F33Y/G231S/I121R/I166T/I218V/L180W/L300P/L318F/N151K/P208A/P217A/Q86R/R138H/R169H/S129P/T345S/V36M). The assay is described as follows: biochemical. The assay is classed as binding.
The target in the next assay is HLA-A*0202 (Homo sapiens, UniProt P04439, D140Y/D185E/D98H/E176V/E277Q/G131W/G231S/I119L/I121R/I166T/I218V/L180W/L300P/L318F/N151K/N90K/P208A/P217A/Q67R/Q86G/Q94H/R138H/R169H/T345S). The assay can be described thus: biochemical. The assay is classed as binding.
Setting [1] is: Binding affinity to A*2902 (expressed as an IC50).
[2] abbreviates: Binding affinity to A*3002 (expressed as an IC50).
Setting [3] is: A*0203 binding affinity (expressed as an IC50).
The mark [4] stands for this setting: A*0206 binding affinity (expressed as an IC50).
Setting [5] is: A*6802 binding affinity (expressed as an IC50).

In general, IC50 refers to the concentration needed to halve the response being measured. In the case of `CC(C)C[C@H](NC(=O)[C@H](Cc1c[nH]cn1)NC(=O)[C@H](CC(C)C)NC(=O)[C@H](CCCCN)NC(=O)[C@H](CCCNC(=N)N)NC(=O)CNC(=O)[C@H](Cc1ccc(O)cc1)NC(=O)[C@@H](NC(=O)[C@@H](N)CCCCN)[C@@H](C)O)C(=O)N[C@@H](Cc1ccc(O)cc1)C(=O)O`, the IC50 at HLA-A*2902 (setting [1]) was found to be 27 nM; on HLA-A*3002 (setting [2]), 1.5 nM.

With YYNNFNNNY, the 50% inhibitory concentration (IC50) at HLA-A*2902 (setting [1]) amounted to 19 nM; on HLA-A*3002 (setting [2]), 34 nM. On to TYGWCFKL, for which the half-inhibitory concentration (IC50) was 25700 nM on HLA-A*2902 and over 8040 nM on HLA-A*3002. Take AMAKAAAAV: the half-inhibitory concentration (IC50) at HLA-A*0203 (setting [3]) was found to be 6.7 nM; at HLA-A*0206 (setting [4]), 1480 nM; on HLA-A*6802 (setting [5]) it was 177 nM. Consider KIFASVAIL, for which the results for the IC50 on HLA-A*0202 (A*0202 binding affinity (expressed as an IC50)), on HLA-A*0203 (setting [3]) and on HLA-A*6802 (setting [5]) were 16 nM, 21 nM and 363 nM, respectively. As to KVGSLQYV, the IC50 against HLA-A*0203 turned out to be 703 nM; against HLA-A*0206 it was 1900 nM; on HLA-A*6802 it was 17500 nM. On HLA-A*6802 (setting [5]), FPFKYAAAV showed a half-maximal inhibitory concentration (IC50) of 92 nM. Take `CC(C)C[C@H](NC(=O)[C@H](CO)NC(=O)[C@@H](N)CC(C)C)C(=O)N[C@@H](CC(=O)O)C(=O)N[C@H](C(=O)N[C@@H](CO)C(=O)N[C@@H](C)C(=O)N[C@@H](C)C(=O)N[C@@H](Cc1ccccc1)C(=O)N[C@@H](Cc1ccc(O)cc1)C(=O)O)C(C)C`: the 50% inhibitory concentration (IC50) on HLA-A*2902 (setting [1]) worked out at 12 nM.

Turning to SSFFMNRFY, the IC50 on HLA-A*2902 (setting [1]) is 36 nM; at HLA-A*3002 (setting [2]), 7.5 nM. Take KYQAVTTTL: the IC50 at HLA-A*2902 (A*2902 binding affinity (IC50)) was over 156000 nM. At HLA-A*0202, LLFGWCFKLV displayed an IC50 of 84 nM. Consider LSEYYDXD1Y, for which the IC50 with HLA-A*3002 (read-out: Binding affinity to A*3002 (expressed as an IC50)) was found to be 489 nM. For the compound LTDVSIACVY, the figures for the half-inhibitory concentration (IC50) on HLA-A*2902 and against HLA-A*3002 were 764 nM and 72 nM, respectively. As to YLPGPGIRYPL, the IC50 worked out at 20 nM against HLA-A*0202, 1580 nM at HLA-A*0203 and 3500 nM at HLA-A*0206 (setting [4]). The compound ELEASISGKY returned an IC50 at HLA-A*2902 (setting [1]) of 21900 nM. In the case of WQNYTPGPGV, the half-maximal inhibitory concentration (IC50) is 230 nM on HLA-A*0203 (setting [3]), 223 nM on HLA-A*0206 (setting [4]) and 12000 nM at HLA-A*6802 (setting [5]).
